Earlier results as cited in PMC9516282, “Low prevalence of influenza A strains with resistance markers in Brazil during 2017–2019 seasons” (Frontiers in Public Health, 2022).

System: PA:E199G
Parameters: method as in PMID 30670144
Details: virus with PA:E199G substitution

COC(=O)OCOc1c2n(ccc1=O)N([C@@H]1c3ccccc3SCc3c1ccc(F)c3F)[C@@H]1COCCN1C2=O [BXM, baloxavir marboxil]
RI (reduced inhibition) to BXM: 4.5 fold
